Experimental data reported in US12331048B2, “Pyrido-[3,4-d]pyridazine amine derivatives useful as NLRP3 inhibitors” (Ventus Therapeutics U.S., Inc., priority 2022, dated 2025).
Like-named read-outs stand apart in the source and are kept apart here.

Experiments:
NLRP3 = target: T1, NLRP3 (Homo sapiens, UniProt Q96P20); assay: Human whole blood (hWB) NLRP3 assay; type: cell-based; conditions: LPS priming 1 μg/ml, ATP activation, read-out: hWB IC50 (raw activity data)
T1 construct: endogenous in cells
Method: Heparin lithium coated tubes were used to collect blood from volunteers. Blood samples were distributed on 96 well plates using 90 μl per well. Priming was performed by adding 5 μl of LPS (O26:B6; Sigma L-2654) at a final concentration of 1 μg/ml for 4.5 hours in a humidified incubator with 37° C., 5% CO2. Thirty minutes prior to NLRP3 activation, 5 μl of a 20× compound solution or vehicle (2% DMSO) was added to each well and plates were incubated on a shaker (450 rpm) in a humidified incubator with 37° C., 5% CO2. Activation was then performed by adding 3.3 μl of a 31×ATP solution per well. At the end of the 30 minutes stimulation, the plates were centrifuged (800 g, 10 min. room temperature) and the plasma from each well was frozen at −80° C. […] levels in the supernatant were analyzed using a mesoscale discovery assay (MSD K151TUK) according to the manufacturers' instructions. Human whole blood was drawn from healthy volunteers after obtaining written informed consent.
Table D assigns each compound a code for potency in the human whole blood (hWB) NLRP3 Assay: A or B. According to the code. […] The corresponding raw activity data is also included.

[1] = Brain levels (kp and kpu,u) after oral administration; type: in vivo, CDI mice; conditions: mice, 20 mpk PO; for Kp at 24 h / Kpu,u (unbound brain-to-plasma ratio): CDI, mouse, brain / plasma, po, 20 mg/kg; for Kp at 24 h: whole brain AUC over 24 h divided by plasma AUC; for Kpu,u (unbound brain-to-plasma ratio) / kpu,u (code): kp corrected with mouse plasma protein binding and mouse brain homogenate binding
Method: The in vivo total brain to plasma ratio was assessed in CDI mice after oral administration of the compound. Blood was collected at several timepoints up to 24 h, and transferred into plastic micro centrifuge tubes with EDTA-K2 as anticoagulant. Blood samples were centrifuged at 4000 g for 5 minutes at 4° C. to obtain plasma, then immediately frozen and stored at −75±15° C. prior to analysis. Animals were terminally anaesthetized with a rising concentration of CO2 gas at about 1 minute. At selected timepoints, whole brains were removed from the skull, rinsed in cold PBS to remove blood, dried with clean gauze, then frozen in liquid nitrogen and kept at −75±15° C. before analysis. At the time of analysis, brain samples were homogenized with PBS by tissue weight (g) to PBS volume (mL) ratio 1:3. Plasma and brain drug levels were quantified by LC/MS/MS on a AB Sciex Triple Quad 5500+ instrument, after separation on a HALO 160A ES-C18, 2.7 μm 2.1-50 mm column. Quantitation was performed using a calibration curve prepared in blank plasma or blank brain homogenate. The software WinNonlin (Phoenix™) was used for pharmacokinetic analysis from the concentrations versus time data, including the AUCinf and AUClast. The Kp ratio (total brain concentration over total plasma concentration) was calculated as (AUCtot,br)/(AUCtot,pl).
The unbound brain exposure was assessed as Kpuu, which is the free brain/free plasma concentration ratio (Cu,br/Cu,pl). The Cu,br/Cu,pl ratios were obtained from in vivo total brain to plasma ratios (Ctot,br/Ctot,pl) by using in vitro determined Fu,br and Fu,pl.
Plasma protein binding and brain homogenate protein binding were measured by equilibrium dialysis in a HTDialysis plate. The dialysis membranes were soaked in ultrapure water for 60 minutes to separate strips, then in 20% ethanol for 20 minutes, finally in dialysis buffer for 20 minutes. The dialysis set up was assembled according to the manufacturer's instruction. Each cell received 150 μL of plasma or brain homogenate spiked with 1 mM of compound, and dialyzed against an equal volume of dialysis buffer (PBS). The dialysis plate was sealed and incubated in an incubator at 37° C. with 5% CO2 at 100 rpm for 6 hours. At the end of incubation, compound concentration was measured in both chambers by LC-MS/MS on a Triple Quad™ 5500 from AB Inc after separation on a XSelect Hss T3 2.5μ (2.1×30 mm) column. Free fraction (Fu) was calculated as (Peak Area Ratio buffer chamber/Peak Area Ratio plasma chamber).
Kpuu was calculated as (AUCtot,br×Fu,br)/(AUCtot,pl×Fu,pl).
The below table also assigns each compound a code for kp and kpu,u values: A or B. According to the code. A represents a value of >0.3 and B represents a value of ≤0.3. […] The kpu,u was then calculated upon correcting this kp value with mouse plasma protein binding and mouse brain homogenates binding. A Kpu,u value >0.3 is brain penetrant, and Kpu,u value less than or equal to 0.3 is not brain penetrant. N.D.=not determined. The corresponding raw kp and kpu,u data is also included.

T1 sequence (Q96P20 whole entry): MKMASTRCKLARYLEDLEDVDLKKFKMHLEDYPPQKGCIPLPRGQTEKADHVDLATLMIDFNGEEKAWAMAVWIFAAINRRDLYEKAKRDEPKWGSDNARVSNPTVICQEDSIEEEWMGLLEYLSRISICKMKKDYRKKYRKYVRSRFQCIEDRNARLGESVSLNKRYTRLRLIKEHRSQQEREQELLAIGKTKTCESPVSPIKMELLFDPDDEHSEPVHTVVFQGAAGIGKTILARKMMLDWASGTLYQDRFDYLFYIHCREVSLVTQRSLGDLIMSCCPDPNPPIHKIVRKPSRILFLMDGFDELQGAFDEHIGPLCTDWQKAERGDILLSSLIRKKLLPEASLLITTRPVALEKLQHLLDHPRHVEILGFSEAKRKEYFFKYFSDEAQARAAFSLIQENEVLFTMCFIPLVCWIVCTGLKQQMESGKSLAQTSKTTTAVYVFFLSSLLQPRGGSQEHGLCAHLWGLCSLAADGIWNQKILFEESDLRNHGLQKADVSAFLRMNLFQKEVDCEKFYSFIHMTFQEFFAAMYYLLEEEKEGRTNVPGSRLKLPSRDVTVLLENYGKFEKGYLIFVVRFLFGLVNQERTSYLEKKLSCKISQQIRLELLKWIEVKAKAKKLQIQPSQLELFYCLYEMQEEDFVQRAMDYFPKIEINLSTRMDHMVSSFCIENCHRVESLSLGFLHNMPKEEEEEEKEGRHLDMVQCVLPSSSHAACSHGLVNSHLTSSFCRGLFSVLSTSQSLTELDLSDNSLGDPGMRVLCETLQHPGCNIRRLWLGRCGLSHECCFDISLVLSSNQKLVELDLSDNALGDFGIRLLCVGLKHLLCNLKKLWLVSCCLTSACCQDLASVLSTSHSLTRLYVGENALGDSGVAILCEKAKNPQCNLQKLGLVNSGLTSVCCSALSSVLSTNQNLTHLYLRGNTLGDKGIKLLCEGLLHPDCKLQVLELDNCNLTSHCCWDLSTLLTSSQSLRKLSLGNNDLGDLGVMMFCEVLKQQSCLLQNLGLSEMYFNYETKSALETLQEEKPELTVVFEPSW

Compound	IC50 (NLRP3) [nM]	Kp at 24 h ([1]; read-out: kp (code))	Kp at 24 h ([1]; read-out: kp (raw))	Kpu,u (unbound brain-to-plasma ratio) [1]	kpu,u (code) [1]
CC1(C)COC[C@@H]1Nc1nnc(-c2ccc(Cl)cc2O)c2ccncc12 (single isomer, unassigned) [Compound 1*]	1000	> 0.3	0.9	0.31	A (A represents a value of >0.3)
CC1(C)COC[C@H]1Nc1nnc(-c2ccc(Cl)cc2O)c2ccncc12 (single isomer, unassigned) [Compound 1B*]	1800				
CC1(C)COCC[C@@H]1Nc1nnc(-c2ccc(Cl)cc2O)c2ccncc12 (single isomer, unassigned) [Compound 3*]	190	> 0.3	0.58	2.2	A (A represents a value of >0.3)
CC1(C)COCC[C@H]1Nc1nnc(-c2ccc(Cl)cc2O)c2ccncc12 (single isomer, unassigned) [Compound 3B*]	11000				
CC1(C)C[C@@H](Nc2nnc(-c3ccc(Cl)cc3O)c3ccncc23)CCO1 (single isomer, unassigned) [Compound 4*]	660	> 0.3	0.81	0.89	A (A represents a value of >0.3)
CC1(C)C[C@H](Nc2nnc(-c3ccc(Cl)cc3O)c3ccncc23)CCO1 (single isomer, unassigned) [Compound 4B*]	1700				
CN1CCO[C@@H](CNc2nnc(-c3ccc(C(F)(F)F)cc3O)c3ccncc23)C1 (single isomer, unassigned) [Compound 6*]	430	> 0.3	0.66	2.3	A (A represents a value of >0.3)
CN1CCO[C@H](CNc2nnc(-c3ccc(C(F)(F)F)cc3O)c3ccncc23)C1 (single isomer, unassigned) [Compound 6B*]	1260				
Oc1cc(Cl)ccc1-c1nnc(N[C@H]2CCOC2)c2cnccc12 (single isomer, unassigned) [Compound 7*, reference compound]	800	≤ 0.3	0.13	0.15	B (B represents a value of ≤0.3)
Cc1ccc(-c2nnc(N[C@H]3CCC(C)(C)OC3)c3cnccc23)c(O)c1 (single isomer, unassigned) [Compound 10*]	1400	> 0.3	0.35	0.51	A (A represents a value of >0.3)
Cc1ccc(-c2nnc(N[C@@H]3CCC(C)(C)OC3)c3cnccc23)c(O)c1 (single isomer, unassigned) [Compound 10B*]	7900				
CC1(C)C[C@@H](Nc2nnc(-c3ccc(C(F)(F)F)cc3O)c3ccncc23)CCO1 (single isomer, unassigned) [Compound 11*]	1400	> 0.3	0.96	1.3	A (A represents a value of >0.3)
CC1(C)C[C@H](Nc2nnc(-c3ccc(C(F)(F)F)cc3O)c3ccncc23)CCO1 (single isomer, unassigned) [Compound 11B*]	10000				
Cc1ccc(-c2nnc(N[C@@H]3COC(C)(C)C3)c3cnccc23)c(O)c1F (single isomer, unassigned) [Compound 12B]	3200				
Cc1ccc(-c2nnc(N[C@H]3COC(C)(C)C3)c3cnccc23)c(O)c1F (single isomer, unassigned) [Compound 12]	820	> 0.3	0.33	1.3	A (A represents a value of >0.3)
Cc1ccc(-c2nnc(N[C@H]3CCOCC3(C)C)c3cnccc23)c(O)c1 (single isomer, unassigned) [Compound 13]	220	> 0.3	0.6	0.77	A (A represents a value of >0.3)
CC1(C)C[C@H](Nc2nnc(-c3ccc(C(F)F)cc3O)c3ccncc23)CCO1 (single isomer, unassigned) [Compound 16B*]	12000				
C[C@H]1COCC[C@@H]1Nc1nnc(-c2ccc(Cl)cc2O)c2ccncc12 (single isomer, unassigned) [Compound 18C*]	1200				
C[C@@H]1COCC[C@@H]1Nc1nnc(-c2ccc(Cl)cc2O)c2ccncc12 (single isomer, unassigned) [Compound 18D*]	6200				
C[C@H]1C[C@@H](Nc2nnc(-c3ccc(Cl)cc3O)c3ccncc23)CCO1 (single isomer, unassigned) [Compound 25B*]	850				
Cc1cc(O)c(-c2nnc(N[C@@H]3COC(C)(C)C3)c3cnccc23)c(Cl)c1 (single isomer, unassigned) [Compound 26B*]	1300				
Cc1ccc(-c2nnc(N[C@@H]3COC(C)(C)C3)c3cnccc23)c(O)c1 [Compound 5B, (S)-2-(4-((5,5-dimethyltetrahydrofuran-3-yl)amino)pyrido[3,4-d]pyridazin-1-yl)-5-methylphenol]	210				

Second part, the compound after the results:

IC50 (NLRP3) [nM]	Kp at 24 h ([1]; read-out: kp (code))	Kp at 24 h ([1]; read-out: kp (raw))	Kpu,u (unbound brain-to-plasma ratio) [1]	kpu,u (code) [1]	Compound
9800					Cc1ccc(-c2nnc(N[C@@H]3CCOCC3(C)C)c3cnccc23)c(O)c1 (single isomer, unassigned) [Compound 13B]
3600					Cc1ccc(-c2nnc(N[C@@H]3CCOC(C)(C)C3)c3cnccc23)c(O)c1 (single isomer, unassigned) [Compound 14B]
18000					CC1(C)COCC[C@H]1Nc1nnc(-c2ccc(C(F)(F)F)cc2O)c2ccncc12 (single isomer, unassigned) [Compound 15B]
2400					CC1(C)COCC[C@H]1Nc1nnc(-c2ccc(C(F)F)cc2O)c2ccncc12 (single isomer, unassigned) [Compound 17B]
1200					Oc1cc(C(F)(F)F)ccc1-c1nnc(N[C@@H]2COC3(CC3)C2)c2cnccc12 (single isomer, unassigned) [Compound 19B]
3400					CC1(C)CC[C@@H](Nc2nnc(-c3ccc(C(F)F)cc3O)c3ccncc23)CO1 (single isomer, unassigned) [Compound 20B]
2300					Cc1cc(O)c(-c2nnc(N[C@@H]3COC(C)(C)C3)c3cnccc23)c(F)c1 (single isomer, unassigned) [Compound 21B]
5900					CC1(C)OCC[C@@H]1Nc1nnc(-c2ccc(C(F)(F)F)cc2O)c2ccncc12 (single isomer, unassigned) [Compound 22B]
	≤ 0.3	0.28	0.09	B (B represents a value of ≤0.3)	CC1(C)C[C@H](Nc2nnc(-c3ccc(C(F)F)cc3O)c3ccncc23)CO1 (single isomer, unassigned) [Compound 23B]
